Assay results reported in patent US20060121441A1, “Methods of determining the effect of an agent on diploid cells and/or on the pattern of expression of polypeptides expressed therewith” (priority 2002, published 2006).

Key:
Type in all cases: cell-based, Aplysia californica
EB3 association with MTs = test: Confocal imaging of EGFP-EB3 and microtubules in cultured neurons; conditions: EGFP-EB3-expressing neurons
Text: (§1) Cell culture—Neurons B1 and B2 from buccal ganglia, MCn neurons from the metacerebral ganglion, sensory neurons from the pleuropeadal ganglion and LUQs from the abdominal ganglion of Aplysia californica were isolated and maintained in culture as previously described [Schacher and Proshansky, (1983); Spira et al., (1993, 1996)].
Expression constructs—Enzymes were obtained from (New England Biolabs, Beverly, Mass., USA). Each of the chimeric cDNAs of EGFP-EB3, EGFP-p50 and EGFP-MLIV was subcloned into the pCS2+ expression vector as described below [Rupp (1994); Turner and Weintraub (1994)]. For EGFP-EB the pCS2+ vector was cut with XhoI and SnaB. The insert (EGFP-EB3) was cut with NotI, fill in and cut with SalI. For EGFP-P50 the pCS2+ vector was cut with XbaI and the insert was cut with NheI and SpeI.
In-vitro transcription—5′-capped and 3′-polyadenylated mRNA was in vitro transcribed using recombinant in vitro transcription system (Promega, Madison, Wis., USA,). 10 μg of NotI-linearized pCS2+ was used as a template to transcribe capped mRNA. The transcription reaction was effected with RiboMax-sp6 kit (Promrga-P1280). Briefly, a reaction mixture was prepared by mixing 8 μl Transcription ×5 Buffer, 8 μl rNTPs mix containing 25 mM CTP, ATP, UTP and 12 mM GTP, 4 μl of 15 mM Cap analog (Roche 85846029), 1 μl of 40 units rRnasin (Promega N251A), 4 μl enzyme mix and 1-2 μg linear plasmid. Final reaction volume was compensated to 40 μl. […]
Mag-fura-2 Ca^2+ imaging—To study the local effect of elevated calcium levels on the distribution of a given fluorescentlly labled protein ratio imaging of the free intracellular calcium concentration was effected by mag fura-2. […] The fluorescence microscopy system consisted of a Zeiss Axiovert microscope equipped with a 75 W Xenon arc lamp, a Zeiss 40×0.75 NA Plan-Neofluar objective, 340±5 nm and 380±5 nm bandpass excitation filters set in a computer-controlled, Lambda10 position filter changer (Sutter, Novato Calif.), a dichroic mirror with a cut-off threshold of 505 nm and a 545±25 nm band pass emission filter. […]

[1] = tested on: actin bundles at the leading edge of growth cones; test: Confocal imaging of EGFP-actin bundles in growth cones of cultured neurons injected with mRNA encoding EGFP-actin
Text: as §1
EGFP cDNA was amplified from pEGFP-N1 vector (Clontech, Palo-Alto, Calif., USA) by polymerase chain reaction (PCR) with two specific primers: 5′-GGCCATGGTGAGCAAGG-3′ and 5′-CTTGTACAGCTCGTCCATG-3′(Genset Oligos) (SEQ ID NOs: 1 and 2, respectively). The PCR product was digested with HindII and SmaI and subcloned into corresponding sites of Bluescript II SK (Stratagen, La Jolla, Calif.). Aplysia actin provided by Dr DesGrosiller (Montreal University, Canada) was amplified by PCR from Bluescript containing the actin cDNA using two specific primers: 5′-ATGTGTGACGACGATGTT-3′ and 5′-TTAGAAGCACTTGCGGTCG-3′ (SEQ ID NOs: 3 and 4, respectively) with SmaI and XbaI restriction sites at their 5′ ends. Following digestion, the PCR product was subcloned in-frame with EGFP into the previously prepared pBluescript-EGFP vector linearized with SmaI and XbaI. The EGFP-Actin fragment was then cut out from pBluescript with ClaI and XbaI and subcloned into corresponding sites of pCS2+ vector [Rupp (1994); Turner and Weintraub (1994) supra]. […]

microtubules = test: Confocal imaging of EGFP-tubulin labelled microtubules in axotomy-induced growth cone of cultured neurons
Protocol: mRNA microinjection—mRNA was injected into the cytoplasm of Aplysia neurons bathed in ASW 8-48 hours following plating. 0.5-5 μg/μl mRNA in 80 mM KCl was used for injection. Injection was performed by pressure using Medical System Corp microinjector inserted into the cell body under visual control. Approximately up to 10% of the cell's body volume was injected. […] Good penetration was indicated by a resting potential of >−35 mV and measuring a typical input resistance. At the end of the injection, the micropipette tip was pooled out gently of the neuron. Cells were imaged for protein expression 12-48 hours following injection.
Axotomy—Axonal transection was performed by applying pressure on the axon with the thin shaft of a micropipette under visual control, as previously described [Spira et al., 1993, 1996; Ziv and Spira, (1993)].

`CCCC[C@@H](C=O)NC(=O)[C@H](CC(C)C)NC(=O)OCc1ccccc1` [calpeptin] was tested, and the “effect on MTs and EB3 association with MTs” value (EB3 association with MTs) was “induces milled dissociation of EB3 from the MTs”.

In the case of `C=C1[C@@H](C)[C@H]2[C@H](Cc3ccccc3)NC(=O)[C@]23OC(=O)/C=C/[C@H](O)CCC[C@@H](C)C/C=C/[C@H]3[C@@H]1O` [cytochalasin B], the “effect on EGFP labeled actin bundles at the leading edge of growth cones” value ([1]; cultured B1 neuron, nine minutes following bath application of 2 mM) is reported as “actin bundles disassembly and the formation of small actin aggregates within the collapsed growth cones and the axoplasm” and the “depolymerisation of fluorescent actin bundles after application” value ([1]; growth cone formed after axotomy, FIGS. 3a-b) is reported as “depolymerised within minutes”.

In the case of `C[C@H](CCC(=O)O)C[C@H](C)C[C@H](C)C(=O)/C=C(\O)[C@H](C)C[C@H](C)C/C=C/[C@@H](C)[C@@H](O)[C@@H](C)[C@@H](O)C[C@@H]1CC[C@@](C)([C@H]2CC[C@@](C)([C@@H](C)O)O2)O1` [ionomycin], the “mimicry of the axotomy-induced MT depolymerization/repolymerization and vesicle trap process by local elevation of [Ca2+]i” value (EB3 association with MTs; local application) is reported as “able to mimic the process”.

For `COC(=O)Nc1nc2ccc(C(=O)c3cccs3)cc2[nH]1` [nocodazole], the “effect on EGFP-tubulin microtubules in growth cone lamellipodium” value (microtubules; bath application 5 mM for 5 min) was “depolymerisation of most microtubules”, the “effect on EGFP labelled microtubules within growth cone” value (microtubules; cultured B1 neuron, twenty three minutes following bath application of 5 mM) was “microtubules depolymerise” and the “effect on MTs and EB3 association with MTs” value (EB3 association with MTs) was “induces MTs deplymerization and dissociation of EB3 from the MTs”.
